# According to patent US20100298141A1, “SUBSTITUTED PYRIDINE N-OXIDE HERBICIDES” (E. I. DU PONT DE NEMOURS AND COMPANY, priority 2007, published 2010):
# Tests used:
# [1] = tested on: crabgrass; experiment: Test A pre-/postemergence greenhouse test; assay type: in vivo, Digitaria sanguinalis; details: for Plant response rating, Crabgrass, Large: 0 to 100 scale where 0 is no effect and 100 is complete control; for Crabgrass, Large plant response rating: 0 to 100 scale
# Procedure, shortened: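 Each test compound, dissolved in a non-phytotoxic solvent mixture with surfactant, was sprayed directly onto seeded soil (loam/sand blend) and, at the same moment, onto seedlings carrying one to two leaves. Around ten greenhouse days later, plants were rated visually for injury relative to untreated controls.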
# [2] = tested on: downy brome; experiment: Test C pre-/postemergence test; assay type: in vivo, Bromus tectorum
# Procedure, shortened: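 Compounds in a non-phytotoxic solvent with surfactant applied preemergence to seeded pots and, at the same time, postemergence to plants 2–18 cm tall (1- to 4-leaf stage). Paddy tests: pots flooded to 3 cm, compound applied into the water, depth held throughout.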
# [3] = tested on: Surinam grass; experiment: Test F preemergence test; assay type: in vivo, Brachiaria decumbens; details: scale 0 to 100; for Surinam Grass plant response rating: 125 g ai/ha
# Description: (§1) Seeds of plant species selected from bermudagrass (Cynodon dactylon), Surinam grass (Brachiaria decumbens), large crabgrass (Digitaria sanguinalis), green foxtail (Setaria viridis), goosegrass (Eleusine indica), johnsongrass (Sorghum halepense), kochia (Kochia scoparia), pitted morningglory (Ipomoea lacunosa), purple nutsedge (Cyperus rotundus), common ragweed (Ambrosia elation), mustard (Brassica nigra), guineagrass (Panicum maximum), […] (Paspalum dilatatum), barnyardgrass (Echinochloa crus-galli), southern sandbur (Cenchrus echinatus), common sowthistle (Sonchus oleraceous), prickly […] spinosa), Italian ryegrass (Lolium multiflorum), common purslane (Portulaca oleracea), broadleaf signalgrass (Brachiaria platyphylla), common groundsel (Senecio vulgaris), common chickweed (Stellaria media), Virginia dayflower (Commelina virginica), annual bluegrass (Poa annua), naked crabgrass (Digitaria nuda), […] cochinchinensis), quackgrass (Elytrigia repens), Canada horseweed (Conyza canadensis), field bindweed (Convolvulus arvensis), […] (Bidens bipinnata), common mallow (Malva sylvestris), Russian thistle (Salsola kali), and sugarcane (Saccharum officinarum) were planted and treated preemergence with test chemicals formulated in a non-phytotoxic solvent mixture which included a surfactant. At a different time, sugarcane was treated with postemergence applications of some of the test chemicals formulated in the same manner. Plants were approximately 3- to 4-leaf stage for the postemergence treatments. Treated plants and controls were maintained in a greenhouse for 14 to 21 days, after which time all species were compared to controls and visually evaluated. […] A dash (-) response means no test result.
# [4] = tested on: large crabgrass; experiment: Test F preemergence test; assay type: in vivo, Digitaria sanguinalis; details: scale 0 to 100
# Description: as §1
# [5] = tested on: green foxtail; experiment: Test F preemergence test; assay type: in vivo, Setaria viridis; details: scale 0 to 100
# Description: as §1
# [6] = tested on: goosegrass; experiment: Test F preemergence test; assay type: in vivo, Eleusine indica; details: scale 0 to 100
# Description: as §1
# [7] = tested on: johnsongrass; experiment: Test F preemergence test; assay type: in vivo, Sorghum halepense; details: scale 0 to 100
# Description: as §1
# [8] = tested on: common ragweed; experiment: Test F preemergence test; assay type: in vivo, Ambrosia elation; details: scale 0 to 100; for Ragweed plant response rating: 125 g ai/ha
# Description: as §1
# [9] = tested on: southern sandbur; experiment: Test F preemergence test; assay type: in vivo, Cenchrus echinatus; details: scale 0 to 100; for Sandbur plant response rating: 125 g ai/ha
# Description: as §1
# [10] = tested on: Italian ryegrass; experiment: Test F preemergence test; assay type: in vivo, Lolium multiflorum; details: scale 0 to 100; for Ryegrass, Italian plant response rating: 125 g ai/ha
# Description: as §1
# [11] = tested on: itchgrass; experiment: Test F preemergence test; assay type: in vivo, Rottboellia cochinchinensis; details: scale 0 to 100
# Description: as §1
# [12] = tested on: field bindweed; experiment: Test F preemergence test; assay type: in vivo, Convolvulus arvensis; details: scale 0 to 100
# Description: as §1
# [13] = Postemergence, 500 g ai/ha, 0 is no effect, 100 is complete control
# [14] = Preemergence, 125 g ai/ha, 0 no effect, 100 complete control
# [15] = 62 g ai/ha, Preemergence, scale 0 to 100
# [16] = 125 g ai/ha, preemergence, scale 0 (no effect) to 100 (complete control)
# [17] = Preemergence, 31 g ai/ha, scale 0 to 100 (0 no effect, 100 complete control)
# [18] = preemergence, 250 g ai/ha, scale 0 (no effect) to 100 (complete control)
compound,measurement,setting,value
CC(Oc1c(CS(=O)(=O)c2cccc[n+]2[O-])c(C(F)(F)F)nn1C)C(F)(F)F (centres unmarked) [Compound 82],"Plant response rating, Crabgrass, Large","[1]; Postemergence, 125 g ai/ha",80
same,"Crabgrass, Large plant response rating",[1]; [13],90
same,"Crabgrass, Large plant response rating",[1]; [14],80
same,"Plant response rating, Crabgrass, Large","[1]; Preemergence, 500 g ai/ha",100
same,"Bromegrass, Downy plant response rating",[2]; [15],60
same,"Bromegrass, Downy plant response rating",[2]; [16],80
same,"Plant response rating (0 to 100), Bromegrass, Downy","[2]; Postemergence, 31 g ai/ha",0
same,"Plant response rating (0 to 100), Bromegrass, Downy","[2]; Postemergence, 62 g ai/ha",0
same,"Plant response rating, Bromegrass, Downy","[2]; Postemergence, 125 g ai/ha, scale 0 to 100, 0 no effect, 100 complete control",0
same,"Plant response rating, Bromegrass, Downy","[2]; Postemergence, 250 g ai/ha, scale 0 to 100, 0 no effect, 100 complete control",0
same,"Plant response rating, Bromegrass, Downy",[2]; [17],50
same,"Bromegrass, Downy plant response rating",[2]; [18],100
same,"Plant response rating, Surinam Grass","[3]; 16 g ai/ha, preemergence",0
same,Surinam Grass plant response rating,[3]; preemergence,100
same,"Plant response rating, Surinam Grass","[3]; Preemergence, 62 g ai/ha",90
same,"Plant response rating, Surinam Grass","[3]; Preemergence, 31 g ai/ha",30
same,"Plant response rating, Crabgrass, Large","[4]; 16 g ai/ha, preemergence",0
same,"Crabgrass, Large plant response rating","[4]; 125 g ai/ha, preemergence",100
same,"Plant response rating, Crabgrass, Large","[4]; Preemergence, 62 g ai/ha",90
same,"Plant response rating, Crabgrass, Large","[4]; Preemergence, 31 g ai/ha",50
same,"Plant response rating, Foxtail, Green","[5]; 16 g ai/ha, preemergence",30
same,"Foxtail, Green plant response rating","[5]; 125 g ai/ha, preemergence",95
same,"Plant response rating, Foxtail, Green","[5]; Preemergence, 62 g ai/ha",95
same,"Plant response rating, Foxtail, Green","[5]; Preemergence, 31 g ai/ha",95
same,"Plant response rating, Goosegrass","[6]; 16 g ai/ha, preemergence",15
same,Goosegrass plant response rating,"[6]; 125 g ai/ha, preemergence",98
same,"Plant response rating, Goosegrass","[6]; Preemergence, 62 g ai/ha",98
same,"Plant response rating, Goosegrass","[6]; Preemergence, 31 g ai/ha",75
same,Johnsongrass plant response rating,"[7]; 125 g ai/ha, preemergence",100
same,"Plant response rating, Johnsongrass","[7]; Preemergence, 62 g ai/ha",100
same,"Plant response rating, Johnsongrass","[7]; Preemergence, 31 g ai/ha",35
same,"Plant response rating, Ragweed","[8]; 16 g ai/ha, preemergence",0
same,Ragweed plant response rating,[8]; preemergence,0
same,"Plant response rating, Ragweed","[8]; Preemergence, 31 g ai/ha",0
same,Sandbur plant response rating,[9]; preemergence,95
same,"Plant response rating, Sandbur","[9]; Preemergence, 62 g ai/ha",60
same,"Plant response rating, Sandbur","[9]; Preemergence, 31 g ai/ha",60
same,"Plant response rating, Ryegrass, Italian","[10]; 16 g ai/ha, preemergence",35
same,"Ryegrass, Italian plant response rating",[10]; preemergence,100
same,"Plant response rating, Ryegrass, Italian","[10]; Preemergence, 62 g ai/ha",75
same,"Plant response rating, Ryegrass, Italian","[10]; Preemergence, 31 g ai/ha",75
same,Itchgrass plant response rating,"[11]; 125 g ai/ha, preemergence",70
same,"Plant response rating, Itchgrass","[11]; Preemergence, 62 g ai/ha",60
same,"Plant response rating, Itchgrass","[11]; Preemergence, 31 g ai/ha",0
same,"Plant response rating, Field Bindweed","[12]; 16 g ai/ha, preemergence",0
same,Field Bindweed plant response rating,"[12]; 125 g ai/ha, preemergence",0
same,"Plant response rating, Field Bindweed","[12]; Preemergence, 62 g ai/ha",0
same,"Plant response rating, Field Bindweed","[12]; Preemergence, 31 g ai/ha",0
Cn1nc(OC(F)F)c(CS(=O)(=O)c2cccc[n+]2[O-])c1C(F)(F)F [Compound 80],"Plant response rating, Crabgrass, Large","[1]; Postemergence, 125 g ai/ha",40
same,"Crabgrass, Large plant response rating",[1]; [13],80
same,"Crabgrass, Large plant response rating",[1]; [14],80
same,"Plant response rating, Crabgrass, Large","[1]; Preemergence, 500 g ai/ha",90
same,"Bromegrass, Downy plant response rating",[2]; [15],40
same,"Bromegrass, Downy plant response rating",[2]; [16],60
same,"Plant response rating, Bromegrass, Downy",[2]; [17],40
same,"Bromegrass, Downy plant response rating",[2]; [18],95
same,"Plant response rating, Surinam Grass","[3]; 16 g ai/ha, preemergence",0
same,Surinam Grass plant response rating,[3]; preemergence,100
same,"Plant response rating, Surinam Grass","[3]; Preemergence, 62 g ai/ha",98
same,"Plant response rating, Surinam Grass","[3]; Preemergence, 31 g ai/ha",80
same,"Plant response rating, Crabgrass, Large","[4]; 16 g ai/ha, preemergence",40
same,"Crabgrass, Large plant response rating","[4]; 62 g ai/ha, Preemergence",80
same,"Crabgrass, Large plant response rating","[4]; 125 g ai/ha, preemergence",90
same,"Plant response rating, Crabgrass, Large","[4]; Preemergence, 31 g ai/ha",80
same,"Plant response rating, Foxtail, Green","[5]; 16 g ai/ha, preemergence",30
same,"Foxtail, Green plant response rating","[5]; 62 g ai/ha, Preemergence",75
same,"Foxtail, Green plant response rating","[5]; 125 g ai/ha, preemergence",95
same,"Plant response rating, Foxtail, Green","[5]; Preemergence, 31 g ai/ha",75
same,"Plant response rating, Goosegrass","[6]; 16 g ai/ha, preemergence",80
same,Goosegrass plant response rating,"[6]; 62 g ai/ha, Preemergence",95
same,Goosegrass plant response rating,"[6]; 125 g ai/ha, preemergence",100
same,"Plant response rating, Goosegrass","[6]; Preemergence, 31 g ai/ha",85
same,"Plant response rating, Johnsongrass","[7]; 16 g ai/ha, preemergence",50
same,Johnsongrass plant response rating,"[7]; 62 g ai/ha, Preemergence",90
same,Johnsongrass plant response rating,"[7]; 125 g ai/ha, preemergence",98
same,"Plant response rating, Johnsongrass","[7]; Preemergence, 31 g ai/ha",75
same,"Plant response rating, Ragweed","[8]; 16 g ai/ha, preemergence",0
same,Ragweed plant response rating,[8]; preemergence,90
same,"Plant response rating, Ragweed","[8]; Preemergence, 31 g ai/ha",0
same,"Plant response rating, Sandbur","[9]; 16 g ai/ha, preemergence",65
same,Sandbur plant response rating,[9]; preemergence,100
same,"Plant response rating, Sandbur","[9]; Preemergence, 62 g ai/ha",95
same,"Plant response rating, Sandbur","[9]; Preemergence, 31 g ai/ha",80
same,"Plant response rating, Ryegrass, Italian","[10]; 16 g ai/ha, preemergence",15
same,"Ryegrass, Italian plant response rating",[10]; preemergence,65
same,"Plant response rating, Ryegrass, Italian","[10]; Preemergence, 62 g ai/ha",65
same,"Plant response rating, Ryegrass, Italian","[10]; Preemergence, 31 g ai/ha",20
same,"Plant response rating, Itchgrass","[11]; 16 g ai/ha, preemergence",10
same,Itchgrass plant response rating,"[11]; 62 g ai/ha, Preemergence",60
same,Itchgrass plant response rating,"[11]; 125 g ai/ha, preemergence",90
same,"Plant response rating, Itchgrass","[11]; Preemergence, 31 g ai/ha",20
same,"Plant response rating, Field Bindweed","[12]; 16 g ai/ha, preemergence",0
same,Field Bindweed plant response rating,"[12]; 62 g ai/ha, Preemergence",0
same,Field Bindweed plant response rating,"[12]; 125 g ai/ha, preemergence",0
same,"Plant response rating, Field Bindweed","[12]; Preemergence, 31 g ai/ha",0
